Test results from US9006191B2, “Silencing of polo-like kinase expression using interfering RNA” (Protiva Biotherapeutics, Inc., priority 2007, dated 2015).

Each substance was assayed on HT29 cells (assay: HT29 cell viability assay (CellTiter-Blue)). Details: HT29 cells, SNALP-formulated siRNA at a range of siRNA concentrations, viability at 72 h relative to PBS.
Type: cell-based, human
Description: (§1) Various PLK-1 siRNAs were formulated as SNALP (“2:40” SNALP formulation: 2% PEG-cDMA; 40% DLinDMA; 10% DSPC; and 48% cholesterol) and evaluated for their inhibitory effects on cell growth in vitro. HT29 (human colon adenocarcinoma) or Neuro2A (mouse neuroblastoma) cells were treated with various PLK-1 SNALP at a range of siRNA concentrations and their effect on cell viability was evaluated. Viability of cell cultures is expressed as % viability relative to PBS treated controls.
Additional PLK-1 siRNA molecules were formulated as SNALP (“2:40” SNALP formulation: 2% PEG-cDMA; 40% DLinDMA; 10% DSPC; and 48% cholesterol) and evaluated for their inhibitory effects on cell growth in vitro. HT29 or Neuro2A cells were plated in triplicate at 5000 cells/well and 2500 cells/well, respectively. PLK-1 SNALP dosages were as follows: 25 nM; 5 nM; and 1 nM. Cell viability analysis was performed at 72 hours following transfection. SNALP containing a non-targeting (GFP) siRNA were used as a negative control. […]
PLK-1 siRNA molecules containing 2′-O-methyl (2′OMe) nucleotides at selective positions within the double-stranded region of the siRNA duplex were formulated as SNALP (“2:40” SNALP formulation: 2% PEG-cDMA; 40% DLinDMA; 10% DSPC; and 48% cholesterol) and evaluated for their inhibitory effects on cell growth in vitro. HT29 cells were plated in triplicate at 5000 cells/well. Cell viability analysis was performed at 72 hours following transfection with a range of PLK-1 SNALP dosages. SNALP containing a non-targeting (GFP) siRNA were used as a negative control.
Cell viability assays. […] Cell viability analysis was performed at 72 hours following transfection with a range of PLK-1 SNALP dosages.
With “PLK773 G/GU: 2′OMe-modified PLK773 siRNA, SEQ ID NO:64/63 (chain 1 AGACCUACCUCCGGAUCAANN; chain 2 UUGAUCCGGAGGUAGGUCUNN; chain 1: 2'-O-methyl at 2, 13, other sugars, backbone and the base at N not given here; chain 2: 2'-O-methyl at 9, 12, 17, other sugars, backbone and the base at N not given here; 3' NN overhangs: dT or U ribonucleotide)” the “cell viability / killing of human tumor cells” value (shortened to “cell viability / killing”) was “more potent than the unmodified PLK1424 sequence”.
“PLK772: siRNA to human PLK-1, SEQ ID NO:11/12 (chain 1 GAGACCUACCUCCGGAUCA; chain 2 UGAUCCGGAGGUAGGUCUC; listed as RNA, chemistry not given here)” was tested, and the “cell viability / killing” value was “effective at killing human tumor cells”.
In the case of “PLK1424 U4/GU: 2′OMe-modified PLK1424 siRNA, SEQ ID NO:57/54 (chain 1 AGANCACCCNCCUNAAANANN; chain 2 UAUUUAANGAGGGUGANCUNN; 2'-OMe modifications, further chemistry not given here)”, the “cell viability / killing” value was “as potent as the unmodified PLK1424 sequence”.
With “PLK1345: siRNA to human PLK-1, SEQ ID NO:29/30 (chain 1 GACAGCCUGCAGUACAUAG; chain 2 CUAUGUACUGCAGGCUGUC; listed as RNA, chemistry not given here)” the “cell viability / killing” value was “inhibited the growth of human tumor cells, but at higher siRNA concentrations”.
“PLK1229: siRNA to human PLK-1, SEQ ID NO:21/22 (chain 1 GGGUCAGCAAGUGGGUGGA; chain 2 UCCACCCACUUGCUGACCC; listed as RNA, chemistry not given here)” was tested, and the “cell viability / killing” value was “effective at killing human tumor cells”.
In the case of “PLK1081: siRNA to human PLK-1, SEQ ID NO:17/18 (chain 1 CCAGUGGUUCGAGAGACAG; chain 2 CUGUCUCUCGAACCACUGG; listed as RNA, chemistry not given here)”, the “cell viability / killing” value was “inhibited the growth of human tumor cells, but at higher siRNA concentrations”.
For “PLK832: siRNA to human PLK-1, SEQ ID NO:13/14 (chain 1 GCCGCCUCCCUCAUCCAGA; chain 2 UCUGGAUGAGGGAGGCGGC; listed as RNA, chemistry not given here)”, the “cell viability / killing” value was “effective at killing human tumor cells”.
For “PLK1424 U3/GU: 2′OMe-modified PLK1424 siRNA, SEQ ID NO:53/54 (chain 1 AGANCACCCNCCUNAAAUANN; chain 2 UAUUUAANGAGGGUGANCUNN; 2'-OMe modifications, further chemistry not given here)”, the “cell viability / killing” value was “as potent as the unmodified PLK1424 sequence”.
With “PLK694: siRNA to human PLK-1, SEQ ID NO:9/10 (chain 1 GUGGAUGUGUGGUCCAUUG; chain 2 CAAUGGACCACACAUCCAC; listed as RNA, chemistry not given here)” the “cell viability / killing” value was “effective at killing human tumor cells”.
For “PLK1556: siRNA to human PLK-1, SEQ ID NO:31/32 (chain 1 GCGCCAUCAUCCUGCACCU; chain 2 AGGUGCAGGAUGAUGGCGC; listed as RNA, chemistry not given here)”, the “cell viability / killing” value was “effective at killing human tumor cells”.
For “PLK1195: siRNA to human PLK-1, SEQ ID NO:19/20 (chain 1 GAGGCUGAGGAUCCUGCCU; chain 2 AGGCAGGAUCCUCAGCCUC; listed as RNA, chemistry not given here)”, the “cell viability / killing” value was “effective at killing human tumor cells”.
With “PLK1242: siRNA to human PLK-1, SEQ ID NO:27/28 (chain 1 GGUGGACUAUUCGGACAAG; chain 2 CUUGUCCGAAUAGUCCACC; listed as RNA, chemistry not given here)” the “cell viability / killing” value was “effective at killing human tumor cells”.
In the case of “PLK1233: siRNA to human PLK-1, SEQ ID NO:25/26 (chain 1 CAGCAAGUGGGUGGACUAU; chain 2 AUAGUCCACCCACUUGCUG; listed as RNA, chemistry not given here)”, the “cell viability / killing” value was “effective at killing human tumor cells”.
With “PLK1425 3/5: 2′OMe-modified PLK1425 siRNA, SEQ ID NO:67/68 (chain 1 GANCACCCUCCUNAAANAUNN; chain 2 AUAUUUAANGAGGGUGANCNN; 2'-OMe modifications, chemistry not fully specified)” the “cell viability / killing” value was “more potent than the unmodified PLK1425 sequence”.
With “PLK1232: siRNA to human PLK-1, SEQ ID NO:23/24 (chain 1 UCAGCAAGUGGGUGGACUA; chain 2 UAGUCCACCCACUUGCUGA; listed as RNA, chemistry not given here)” the “cell viability / killing” value was “effective at killing human tumor cells”.

The substances below were run on Neuro2A cells (assay: Neuro2A cell viability assay (CellTiter-Blue)). Details: mouse Neuro2A cells, SNALP-formulated siRNA, viability at 72 h relative to PBS.
Type: cell-based
Description: as §1
Additional PLK-1 siRNA molecules were formulated as SNALP (“2:40” SNALP formulation: 2% PEG-cDMA; 40% DLinDMA; 10% DSPC; and 48% cholesterol) and evaluated for their inhibitory effects on cell growth in vitro. HT29 or Neuro2A cells were plated in triplicate at 5000 cells/well and 2500 cells/well, respectively. PLK-1 SNALP dosages were as follows: 25 nM; 5 nM; and 1 nM. Cell viability analysis was performed at 72 hours following transfection. SNALP containing a non-targeting (GFP) siRNA were used as a negative control.
Additional PLK-1 siRNA molecules were formulated as SNALP (“2:40” SNALP formulation: 2% PEG-cDMA; 40% DLinDMA; 10% DSPC; and 48% cholesterol) and evaluated for their inhibitory effects on cell growth in vitro. HT29 or Neuro2A cells were plated in triplicate at 5000 cells/well and 2500 cells/well, respectively. PLK-1 SNALP dosages were as follows: 30 nM; 10 nM; and 3.3 nM. Cell viability analysis was performed at 72 hours following transfection. SNALP containing a non-targeting (GFP) siRNA were used as a negative control.
For “mPLK1425: siRNA to mouse PLK-1, SEQ ID NO:37/38 (chain 1 GAUCACUCUCCUCAACUAU; chain 2 AUAGUUGAGGAGAGUGAUC; listed as RNA, chemistry not given here)”, the “cell viability / inhibition of cell growth” value (“cell viability / inhibition” below) was “most active mouse-specific siRNA sequences”.
In the case of “PLK1345: siRNA to human PLK-1, SEQ ID NO:29/30 (chain 1 GACAGCCUGCAGUACAUAG; chain 2 CUAUGUACUGCAGGCUGUC; listed as RNA, chemistry not given here)”, the “cell viability / inhibition” value was “effective at inhibiting the growth of mouse Neuro2A cells at higher siRNA concentrations”.
In the case of “PLK1229: siRNA to human PLK-1, SEQ ID NO:21/22 (chain 1 GGGUCAGCAAGUGGGUGGA; chain 2 UCCACCCACUUGCUGACCC; listed as RNA, chemistry not given here)”, the “cell viability / inhibition” value was “most potent human/mouse cross-reactive siRNA molecules”.
With “mPLK1424: siRNA to mouse PLK-1, SEQ ID NO:35/36 (chain 1 AGAUCACUCUCCUCAACUA; chain 2 UAGUUGAGGAGAGUGAUCU; listed as RNA, chemistry not given here)” the “cell viability / inhibition” value was “most active mouse-specific siRNA sequences”.
For “mPLK1668: siRNA to mouse PLK-1, SEQ ID NO:49/50 (chain 1 GAGGGACUUCCAAACGUAC; chain 2 GUACGUUUGGAAGUCCCUC; listed as RNA, chemistry not given here)”, the “cell viability / inhibition” value was “most active mouse-specific PLK-1 siRNA sequences”.
For “mPLK1607: siRNA to mouse PLK-1, SEQ ID NO:43/44 (chain 1 AGGACCACACCAAACUUAU; chain 2 AUAAGUUUGGUGUGGUCCU; listed as RNA, chemistry not given here)”, the “cell viability / inhibition” value was “most active mouse-specific PLK-1 siRNA sequences”.
“mPLK1608: siRNA to mouse PLK-1, SEQ ID NO:45/46 (chain 1 GGACCACACCAAACUUAUC; chain 2 GAUAAGUUUGGUGUGGUCC; listed as RNA, chemistry not given here)” was tested, and the “cell viability / inhibition” value was “most active mouse-specific PLK-1 siRNA sequences”.
In the case of “PLK1232: siRNA to human PLK-1, SEQ ID NO:23/24 (chain 1 UCAGCAAGUGGGUGGACUA; chain 2 UAGUCCACCCACUUGCUGA; listed as RNA, chemistry not given here)”, the “cell viability / inhibition” value was “most potent human/mouse cross-reactive siRNA molecule”.
